US10208019B2, “GLP-1 receptor agonists and uses thereof” (Pfizer Inc., priority 2016, dated 2019)
Like-named read-outs stand apart in the source and are kept apart here.

Assays:
[1] = target: human GLP-1R (Homo sapiens (Human), UniProt P43220, L260F); assay: CHO GLP-1R Clone C6—Assay 2: HTRF cAMP cell-based functional agonist assay (low GLP-1R density); conditions: for EC50: CHO GLP-1R Clone C6, cAMP HTRF, geometric mean; for Emax: CHO GLP-1R Clone C6, relative to saturating concentration of full agonist GLP-1 (1 μM), arithmetic mean, read-out: Assay 2 Emax (%)
Chain of human GLP-1R (Homo sapiens (Human), UniProt P43220, L260F) (P43220 24-463 L260F): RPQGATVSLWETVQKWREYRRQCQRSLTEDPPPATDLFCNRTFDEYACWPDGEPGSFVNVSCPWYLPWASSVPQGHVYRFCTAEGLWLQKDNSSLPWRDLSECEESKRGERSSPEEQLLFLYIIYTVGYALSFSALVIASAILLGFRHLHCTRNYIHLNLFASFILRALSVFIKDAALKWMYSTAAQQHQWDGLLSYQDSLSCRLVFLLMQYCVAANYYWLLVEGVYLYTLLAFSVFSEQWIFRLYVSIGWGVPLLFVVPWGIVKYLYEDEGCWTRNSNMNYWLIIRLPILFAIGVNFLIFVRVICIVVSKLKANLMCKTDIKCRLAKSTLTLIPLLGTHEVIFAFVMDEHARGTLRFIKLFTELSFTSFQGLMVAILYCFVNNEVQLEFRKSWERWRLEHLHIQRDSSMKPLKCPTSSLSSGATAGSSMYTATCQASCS

[2] = target: human GLP-1R (Homo sapiens, UniProt P43220, G168S); assay: CHO GLP-1R Clone H6—Assay 1: HTRF cAMP cell-based functional agonist assay (high GLP-1R density); conditions: for EC50: CHO GLP-1R Clone H6, cAMP HTRF, geometric mean; for Emax: read-out: Assay 1 Emax (%), CHO GLP-1R Clone H6; for Emax / Assay 1 Emax (%): relative to saturating concentration of full agonist GLP-1 (1 μM), arithmetic mean; for Assay 1 Emax (%): CHO GLP-1R Clone H6
Chain of human GLP-1R (Homo sapiens, UniProt P43220, G168S) (P43220 24-463 G168S limits assumed): as the sequence (P43220 24-463 L260F) above, with G145S, F237L counted along it
Protocol: GLP-1R-mediated agonist activity was determined with a cell-based functional assay utilizing an HTRF (Homogeneous Time-Resolved Fluorescence) cAMP detection kit (cAMP HI Range Assay Kit; CisBio cat #62AM6PEJ) that measures cAMP levels in the cell. The method is a competitive immunoassay between native cAMP produced by the cells and exogenous cAMP labeled with the dye d2. The tracer binding is visualized by a mAb anti-cAMP labeled with Cryptate. The specific signal (i.e. energy transfer) is inversely proportional to the concentration of cAMP in either standard or experimental sample.
The human GLP-1R coding sequence (NCBI Reference Sequence NP_002053.3, including naturally-occurring variant Gly168Ser) was subcloned into pcDNA3 (Invitrogen) and a cell line stably expressing the receptor was isolated (designated Clone H6).
Cells were removed from cryopreservation, re-suspended in 40 mL of Dulbecco's Phosphate Buffered Saline (DPBS-Lonza Cat #17-512Q) and centrifuged at 800×g for 5 min at 22° C. The cell pellet was then re-suspended in 10 mL of growth medium [DMEM/F12 1:1 Mixture with HEPES, L-Gln, 500 mL (DMEM/F12 Lonza Cat #12-719F), 10% heat inactivated fetal bovine serum (Gibco Cat #16140-071), 5 mL of 100× Pen-Strep (Gibco Cat #15140-122), 5 mL of 100× L-Glutamine (Gibco Cat #25030-081) and 500 μg/mL Geneticin (G418) (Invitrogen #10131035)]. A 1 mL sample of the cell suspension in growth media was counted on a Becton Dickinson ViCell to determine cell viability and cell count per mL. The remaining cell suspension was then adjusted with growth media to deliver 2000 viable cells per well using a Matrix Combi Multidrop reagent dispenser, and the cells were dispensed into a white 384 well tissue culture treated assay plate (Corning 3570). The assay plate was then incubated for 48 hours at 37° C. in a humidified environment in 5% carbon dioxide.
Varying concentrations of each compound to be tested (in DMSO) were diluted in assay buffer (HBSS with Calcium/Magnesium (Lonza/BioWhittaker cat #10-527F)/0.1% BSA (Sigma Aldrich cat #A7409-1L)/20 mM HEPES (Lonza/BioWhiftaker cat #17-737E) containing 100 μM 3-isobutyl-1-methylxanthin (IBMX; Sigma cat #15879). The final DMSO concentration is 1%.
After 48 hours, the growth media was removed from the assay plate wells, and the cells were treated with 20 μL of the serially diluted compound in assay buffer for 30 minutes at 37° C. in a humidified environment in 5% carbon dioxide. Following the 30 minute incubation, 10 μL of labeled d2 cAMP and 10 μL of anti-cAMP antibody (both diluted 1:20 in cell lysis buffer; as described in the manufacturer's assay protocol) were added to each well of the assay plate. The plates were then incubated at room temperature and after 60 minutes, changes in the HTRF signal were read with an Envision 2104 multi-label plate reader using excitation of 330 nm and emissions of 615 and 665 nm. Raw data were converted to nM cAMP by interpolation from a cAMP standard curve (as described in the manufacturer's assay protocol) and the percent effect was determined relative to a saturating concentration of the full agonist GLP-17-36 (1 μM) included on each plate. EC50 determinations were made from agonist dose-response curves analyzed with a curve fitting program using a 4-parameter logistic dose response equation.

Structure (SMILES) | EC50 [1] | Emax [1] | EC50 ([2]; read-out: Assay 1 EC50) | Emax [2] | EC50 ([2]; Assay 1 EC50 (nM)) | Assay 1 Emax (%) [2]
COCCn1c(CN2CCC(c3cccc(OCc4c(F)cc(Cl)cc4F)n3)CC2)nc2ccc(C(=O)O)cc21 [Example 8A-04, 2-((4-(6-((4-chloro-2,6-difluorobenzyl)oxy)pyridin-2-yl)piperidin-1-yl)methyl)-1-(2-methoxyethyl)-1H-benzo[d]imidazole-6-carboxylic acid] | 1700 nM | 88% | 120 nM | 79% |  | 
N#Cc1ccc(COc2cccc(C3CCN(Cc4nc5ccc(C(=O)O)cc5n4Cc4cnco4)CC3)n2)c(F)c1 [Example 10A-43, 2-[(4-{6-[(4-cyano-2-fluorobenzyl)oxy]pyridin-2-yl}piperidin-1-yl)methyl]-1-(1,3-oxazol-5-ylmethyl)-1H-benzimidazole-6-carboxylic acid] | 48 nM | 79% | 4 nM | 64% |  | 
Cn1c(CN2CCC(c3cccc(OCc4ccc(Cl)cc4F)n3)CC2)nc2cnc(C(=O)O)cc21 [Example 2A-03, 2-((4-(6-((4-Chloro-2-fluorobenzyl)oxy)pyridin-2-yl)piperidin-1-yl)methyl)-1-methyl-1H-imidazo[4,5-c]pyridine-6-carboxylic acid] | 1200 nM | 44% | 150 nM | 74% |  | 
COCCn1c(CN2CCN(c3cccc(OCc4ccc(C#N)cc4)n3)C[C@@H]2C)nc2ccc(C(=O)O)cc21 [Example 12A-08, 2-{[(2S)-4-{6-[(4-cyanobenzyl)oxy]pyridin-2-yl}-2-methylpiperazin-1-yl]methyl}-1-(2-methoxyethyl)-1H-benzimidazole-6-carboxylic acid] | 150 nM | 97% | 6.1 nM | 89% |  | 
O=C(O)c1cc2c(cn1)nc(CN1CCC(c3cccc(OCc4ccc(Cl)cc4F)n3)CC1)n2Cc1ncco1 [Example 2A-06, 2-[(4-{6-[(4-chloro-2-fluorobenzyl)oxy]pyridin-2-yl}piperidin-1-yl)methyl]-1-(1,3-oxazol-2-ylmethyl)-1H-imidazo[4,5-c]pyridine-6-carboxylic acid] | 170 nM | 85% | 9 nM | 82% |  | 
CCn1cncc1Cn1c(CN2CCN(c3cccc(OCc4ccc(C#N)cc4F)n3)C[C@@H]2C)nc2ccc(C(=O)O)cc21 [Example 10A-63] | 11 nM | 110% | 0.58 nM | 86% |  | 
O=C(O)c1ccc2nc(CN3CCN(c4cccc(OCc5ccc(Cl)cc5F)n4)CC3)n(Cc3ncco3)c2c1 [Example 10A-33, 2-[(4-{6-[(4-chloro-2-fluorobenzyl)oxy]pyridin-2-yl}piperazin-1-yl)methyl]-1-(1,3-oxazol-2-ylmethyl)-1H-benzimidazole-6-carboxylic acid] | 24 nM | 91% | 1.5 nM | 73% |  | 
COCCn1c(CN2CCN(c3cccc(OCc4ccc(Cl)cc4F)n3)C[C@H]2C)nc2ccc(C(=O)O)cc21 [Example 12A-11, 2-{[(2R)-4-{6-[(4-chloro-2-fluorobenzyl)oxy]pyridin-2-yl}-2-methylpiperazin-1-yl]methyl}-1-(2-methoxyethyl)-1H-benzimidazole-6-carboxylic acid] | 2100 nM | 100% |  | 81% | 54 nM | 
CCn1cncc1Cn1c(CN2CCC(c3cccc(OCc4ccc(Cl)cc4F)n3)CC2)nc2ccc(C(=O)O)cc21 [Example 10A-02, 2-[(4-{6-[(4-chloro-2-fluorobenzyl)oxy]pyridin-2-yl}piperidin-1-yl)methyl]-1-[(1-ethyl-1H-imidazol-5-yl)methyl]-1H-benzimidazole-6-carboxylic acid] | 2.2 nM | 97% | 0.34 nM | 89% |  | 
C[C@H]1CN(c2ccc(F)c(OCc3ccc(F)cc3F)n2)CCN1Cc1nc2ccc(C(=O)O)cc2n1C[C@H]1CCO1 [Example 10A-57] | 160 nM | 71% | 9.4 nM | 69% |  | 
CCN1CCC[C@@H]1Cn1c(CN2CCC(c3cccc(OCc4ccc(Cl)cc4F)n3)CC2)nc2ccc(C(=O)O)cc21 [Example 11A-54, 2-[(4-{6-[(4-chloro-2-fluorobenzyl)oxy]pyridin-2-yl}piperidin-1-yl)methyl]-1-{[(2R)-1-ethylpyrrolidin-2-yl]methyl}-1H-benzimidazole-6-carboxylic acid] |  |  | 500 nM | 69% |  | 
O=C(O)c1ccc2nc(CN3CCC(c4cccc(OCc5ccc(Cl)cc5F)n4)CC3)n(Cc3ncon3)c2c1 [Example 10A-70] |  |  | 5 nM | 65% |  | 
Cn1c(CN2CCC(c3cccc(OCc4ccccc4F)n3)CC2)nc2ccc(C(=O)O)cc21 [Example 9A-06, 2-[(4-{6-[(2-fluorobenzyl)oxy]pyridin-2-yl}piperidin-1-yl)methyl]-1-methyl-1H-benzimidazole-6-carboxylic acid] |  |  | 870 nM | 82% |  | 
CCN1CCC(Cn2c(CN3CCC(c4cccc(OCc5ccc(Cl)cc5F)n4)CC3)nc3ccc(C(=O)O)cc32)C1 (stereo not drawn) [Example 11A-03, 2-[(4-{6-[(4-chloro-2-fluorobenzyl)oxy]pyridin-2-yl}piperidin-1-yl)methyl]-1-[(1-ethylpyrrolidin-3-yl)methyl]-1H-benzimidazole-6-carboxylic acid] |  |  | > 16000 nM | 100% |  | 
Cn1cc(Cn2c(CN3CCC(c4cccc(OCc5ccc(Cl)cc5F)n4)CC3)nc3ccc(C(=O)O)cc32)cn1 [Example 11A-43, 2-[(4-{6-[(4-chloro-2-fluorobenzyl)oxy]pyridin-2-yl}piperidin-1-yl)methyl]-1-[(1-methyl-1H-pyrazol-4-yl)methyl]-1H-benzimidazole-6-carboxylic acid] |  |  | 190 nM | 80% |  | 
Cc1n[nH]c(CCn2c(CN3CCC(c4cccc(OCc5ccc(Cl)cc5F)n4)CC3)nc3ccc(C(=O)O)cc32)n1 [Example 11A-66, 2-[(4-{6-[(4-chloro-2-fluorobenzyl)oxy]pyridin-2-yl}piperidin-1-yl)methyl]-1-[2-(3-methyl-1H-1,2,4-triazol-5-yl)ethyl]-1H-benzimidazole-6-carboxylic acid] |  |  | 4000 nM | 91% |  | 
COCCn1c(CN2CCC(c3cccc(OCc4ccc(Cl)cc4F)n3)CC2)nc2ccc(C(=O)O)cc21 [Example 1A-02, 2-[(4-{6-[(4-chloro-2-fluorobenzyl)oxy]pyridin-2-yl}piperidin-1-yl)methyl]-1-(2-methoxyethyl)-1H-benzimidazole-6-carboxylic acid] |  |  | 16 nM | 85% |  | 
O=C(O)c1ccc2nc(CN3CCC(c4cccc(OCc5ccc(Cl)cc5F)n4)CC3)n(Cc3ccc(Cl)cn3)c2c1 [Example 11A-02, 2-[(4-{6-[(4-chloro-2-fluorobenzyl)oxy]pyridin-2-yl}piperidin-1-yl)methyl]-1-[(5-chloropyridin-2-yl)methyl]-1H-benzimidazole-6-carboxylic acid] |  |  | > 15000 nM | 100% |  | 
Cc1ccccc1COc1cccc(C2CCN(Cc3nc4ccc(C(=O)O)cc4n3C)CC2)n1 [Example 9A-11, 1-methyl-2-[(4-{6-[(2-methylbenzyl)oxy]pyridin-2-yl}piperidin-1-yl)methyl]-1H-benzimidazole-6-carboxylic acid] |  |  | 1600 nM | 83% |  | 
N#Cc1ccc(COc2cccc(C3CCN(Cc4nc5ccc(C(=O)O)cc5n4CC4CCOC4)CC3)n2)c(F)c1 (single isomer, unassigned; enantiomer 2) [Example 14A-10, 2-[(4-{6-[(4-cyano-2-fluorobenzyl)oxy]pyridin-2-yl}piperidin-1-yl)methyl]-1-(tetrahydrofuran-3-ylmethyl)-1H-benzimidazole-6-carboxylic acid,enantiomer 2] |  |  |  |  |  | 64%
O=C(O)c1cnc2nc(CN3CCC(c4cccc(OCc5ccc(Cl)cc5F)n4)CC3)n(CC(F)(F)F)c2c1 [Example 2A-16, 2-[(4-{6-[(4-chloro-2-fluorobenzyl)oxy]pyridin-2-yl}piperidin-1-yl)methyl]-1-(2,2,2-trifluoroethyl)-1H-imidazo[4,5-b]pyridine-6-carboxylic acid] |  |  | 370 nM | 75% |  | 
Cn1c(CN2CCC(c3cccc(OCc4c(F)cccc4F)n3)CC2)nc2ccc(C(=O)O)cc21 [Example 9A-04, 2-[(4-{6-[(2,6-difluorobenzyl)oxy]pyridin-2-yl}piperidin-1-yl)methyl]-1-methyl-1H-benzimidazole-6-carboxylic acid] |  |  | 2900 nM | 89% |  | 
O=C(O)c1ccc2nc(CN3CCC(c4cccc(OCc5ccc(Cl)cc5F)n4)CC3)n(CCc3c[nH]cn3)c2c1 [Example 11A-41, 2-[(4-{6-[(4-chloro-2-fluorobenzyl)oxy]pyridin-2-yl}piperidin-1-yl)methyl]-1-[2-(1H-imidazol-4-yl)ethyl]-1H-benzimidazole-6-carboxylic acid] |  |  | 190 nM | 74% |  | 
COCCn1c(CN2CCN(c3cccc(OCc4ccc(Cl)cc4F)n3)C(C)(C)C2)nc2ccc(C(=O)O)cc21 [Example 1A-12, 2-[(4-{6-[(4-chloro-2-fluorobenzyl)oxy]pyridin-2-yl}-3,3-dimethylpiperazin-1-yl)methyl]-1-(2-methoxyethyl)-1H-benzimidazole-6-carboxylic acid] |  |  | 750 nM | 76% |  | 
COCCn1c(CN2CCC(c3cccc(OCc4ccc(Cl)cc4F)n3)CC2C)nc2ccc(C(=O)O)cc21 (single isomer, unassigned) [Example 13A-01, trans 2-{[4-{6-[(4-Chloro-2-fluorobenzyl)oxy]pyridin-2-yl}-2-methylpiperidin-1-yl]methyl}-1-(2-methoxyethyl)-1H-benzimidazole-6-carboxylic acid] |  |  |  |  | 1200 nM | 58%
